≈ marks a conversion by molar mass, not a printed value. Entries after “also recorded” stand apart in the source; their conditions may differ. Read-outs that look alike come from different tables or passages of the source.
What was measured:
[1] = system: clinical isolates of methicillin-resistant S. aureus (MRSA); test: Minimum inhibitory concentration, Table 1, MRSA clinical isolates; assay type: cell-based, Staphylococcus aureus; as to sensitive/resistant (growth): key: S Sensitive (did not grow the crop); R resistant (bacterial growth)
[2] = system: Mycobacterium tuberculosis H37Rv; test: microbe, parasite or virus in culture; assay type: cell-based; details: M. tuberculosis H37Rv, broth microdilution
[3] = system: Mycobacterium tuberculosis MDR strain; test: colony-forming units after treatment at the MIC; assay type: cell-based
[4] = system: Mycobacterium tuberculosis; assay type: cell-based; details: electron microscopy
[5] = intratracheal treatment of healthy mice, lung histology; assay type: in vivo; details: 8 μg intratracheally for one month
Method: FIGS. 21C-21F illustrate representative micrographs of lung (hematoxylin-eosin staining, 250× magnification) from the untreated group (FIG. 21C) showing extensive areas of pneumonia (asterisk). […] A representative micrograph of a healthy mouse treated intratracheally for one month with 8 μg of the blue 1,4 benzoquinone is shown in FIG. 21E.
The bactericidal activity of the blue compound was tested against progressive pulmonary tuberculosis using an experimental infection model in BALB/c mice. […] This same dose was administered intratracheally to healthy mice for one month, after which they were sacrificed, and their lungs examined.

[6] = system: peripheral blood mononuclear cells (PBMCs); test: cytotoxicity assay, LDH release; assay type: cell-based, human; details: 25 μM, 12 hours
Method: FIG. 14B illustrates a cytotoxic effect of the 1,4 benzoquinones of the disclosure on peripheral blood mononuclear cells (PBMCs). PBMCs were incubated with the red and blue 1,4 benzoquinones at a concentration of 25 μM for 12 hours, and cell death was evaluated by the release of the stable cytosolic enzyme lactate dehydrogenase. […] Each result is reported as the mean±SD.
Cytotoxicity to PBMCs and to Neoplastic Cells: The cytotoxicity of the 1,4 benzoquinones of the disclosure was tested with peripheral blood mononuclear cells (PBMCs) and various human neoplastic cell lines: A549 (adenocarcinomic lung epithelial cells), Jurkat (T cell leukemia), TE 671 (rhabdomyosarcoma cells) and SH-SY5Y (bone marrow neuroblastoma cells).
PBMCs were obtained from healthy blood donors and isolated by Ficoll-Paque PLUS density gradient centrifugation and resuspended in RPMI-1640 medium supplemented with 10% fetal calf serum. Cells were incubated at 37° C. in 5% CO2 overnight and non-adherent cells were recovered and used for subsequent experiments. The neoplastic cell lines were cultured according to the ATCC guidelines.
For cytotoxicity assays, cells were resuspended in DMEM without phenol red, supplemented with 2% heat-inactivated fetal calf serum. Cells were plated in 96-well polystyrene cell culture plates (2×10^4 to 2×10^5 cells/well depending on the cell type) and incubated at 37° C. in 5% CO2 for 8 hours to promote cell adhesion to the well's surface. The red and blue 1,4 benzoquinones were administered to achieve final concentrations of 1, 5, and 25 μM. Cells were then incubated at 37° C. in 5% CO2 for 12 hours. Following the incubation period, plates were centrifuged at 300×g for 10 minutes and supernatants were harvested to evaluate cell viability with the CytoTox 96@ Non-Radioactive Cytotoxicity Assay (Promega). This assay quantitatively measures lactate dehydrogenase (LDH), a stable cytosolic enzyme that is released upon cell lysis. The released LDH in the culture supernatants was measured with a colorimetric coupled enzymatic assay according to the manufacturer's instructions.

COC1=CC(=O)C(SC)=C(SC)C1=O [blue 1,4 benzoquinone, 5-methoxy-2,3-bis(methylthio)cyclohexa-2,5-diene-1,4-dione]
MIC ([1]; Staphylococcus aureus, MRSA): > 64 µg/mL
MIC ([1]; strain 01 2075): >64 µg/mL
sensitive/resistant (growth) ([1]; strain 01 2075, 0.5 μg/ml): R
sensitive/resistant (growth) ([1]; strain 01 2075, 1 μg/ml): R
sensitive/resistant (growth) ([1]; strain 01 2075, 2 μg/ml): R
sensitive/resistant (growth) ([1]; strain 01 2075, 4 μg/ml): R
sensitive/resistant (growth) ([1]; strain 01 2075, 8 μg/ml): R
sensitive/resistant (growth) ([1]; strain 01 2075, 16 μg/ml): R
sensitive/resistant (growth) ([1]; strain 01 2075, 32 μg/ml): R
sensitive/resistant (growth) ([1]; strain 01 2075, 64 μg/ml): R
MIC ([1]; strain 01 2104): >64 µg/mL
sensitive/resistant (growth) ([1]; strain 01 2104, 0.5 μg/ml): R
sensitive/resistant (growth) ([1]; strain 01 2104, 1 μg/ml): R
sensitive/resistant (growth) ([1]; strain 01 2104, 2 μg/ml): R
sensitive/resistant (growth) ([1]; strain 01 2104, 4 μg/ml): R
sensitive/resistant (growth) ([1]; strain 01 2104, 8 μg/ml): R
sensitive/resistant (growth) ([1]; strain 01 2104, 16 μg/ml): R
sensitive/resistant (growth) ([1]; strain 01 2104, 32 μg/ml): R
sensitive/resistant (growth) ([1]; strain 01 2104, 64 μg/ml): R
sensitive/resistant (growth) ([1]; strain 09 3001, 0.5 μg/ml): R
sensitive/resistant (growth) ([1]; strain 09 3001, 1 μg/ml): R
sensitive/resistant (growth) ([1]; strain 09 3001, 2 μg/ml): R
sensitive/resistant (growth) ([1]; strain 09 3001, 4 μg/ml): R
sensitive/resistant (growth) ([1]; strain 09 3001, 8 μg/ml): R
sensitive/resistant (growth) ([1]; strain 09 3001, 16 μg/ml): R
sensitive/resistant (growth) ([1]; strain 09 3001, 32 μg/ml): R
sensitive/resistant (growth) ([1]; strain 09 3001, 64 μg/ml): R
MIC ([1]; strain 21 2001): >64 µg/mL
sensitive/resistant (growth) ([1]; strain 21 2001, 0.5 μg/ml): R
sensitive/resistant (growth) ([1]; strain 21 2001, 1 μg/ml): R
sensitive/resistant (growth) ([1]; strain 21 2001, 2 μg/ml): R
sensitive/resistant (growth) ([1]; strain 21 2001, 4 μg/ml): R
sensitive/resistant (growth) ([1]; strain 21 2001, 8 μg/ml): R
sensitive/resistant (growth) ([1]; strain 21 2001, 16 μg/ml): R
sensitive/resistant (growth) ([1]; strain 21 2001, 32 μg/ml): R
sensitive/resistant (growth) ([1]; strain 21 2001, 64 μg/ml): R
MIC [2]: 4 µg/mL (≈ 17.4 µM)
killing in comparison to the inoculum bacteria concentration [3]: more than 90%
ultrastructural changes in Mycobacterium tuberculosis bacilli [4]: ultrastructural changes were promoted
ultrastructural changes in Mycobacterium tuberculosis bacilli ([4]; listed as blue benzoquinone): ultrastructural changes
pulmonary histology of healthy mice [5]: The pulmonary histology is normal, with the exception of occasional mild inflammatory infiltrates found around venules; also recorded: only minor inflammatory infiltrates found around the venules
lung fibrosis in healthy mice ([5]; trichrome Masson staining): No fibrosis was seen
PBMCs killed [6]: 50%
cytotoxic effect on PBMCs (LDH release) [6]: cytotoxic against PBMCs

COC1=CC(=O)C(SC)=C(OC)C1=O [red 1,4 benzoquinone, 3,5-dimethoxy-2-(methylthio)cyclohexa-2,5-diene-1,4-dione]
MIC ([1]; Staphylococcus aureus, MRSA): > 64 µg/mL
MIC ([1]; strain 01 2075): >64 µg/mL
sensitive/resistant (growth) ([1]; strain 01 2075, 0.5 μg/ml): R
sensitive/resistant (growth) ([1]; strain 01 2075, 1 μg/ml): R
sensitive/resistant (growth) ([1]; strain 01 2075, 2 μg/ml): R
sensitive/resistant (growth) ([1]; strain 01 2075, 4 μg/ml): R
sensitive/resistant (growth) ([1]; strain 01 2075, 8 μg/ml): R
sensitive/resistant (growth) ([1]; strain 01 2075, 16 μg/ml): R
sensitive/resistant (growth) ([1]; strain 01 2075, 32 μg/ml): R
sensitive/resistant (growth) ([1]; strain 01 2075, 64 μg/ml): R
MIC ([1]; strain 01 2104): >64 µg/mL
sensitive/resistant (growth) ([1]; strain 01 2104, 0.5 μg/ml): R
sensitive/resistant (growth) ([1]; strain 01 2104, 1 μg/ml): R
sensitive/resistant (growth) ([1]; strain 01 2104, 2 μg/ml): R
sensitive/resistant (growth) ([1]; strain 01 2104, 4 μg/ml): R
sensitive/resistant (growth) ([1]; strain 01 2104, 8 μg/ml): R
sensitive/resistant (growth) ([1]; strain 01 2104, 16 μg/ml): R
sensitive/resistant (growth) ([1]; strain 01 2104, 32 μg/ml): R
sensitive/resistant (growth) ([1]; strain 01 2104, 64 μg/ml): R
sensitive/resistant (growth) ([1]; strain 09 3001, 0.5 μg/ml): R
sensitive/resistant (growth) ([1]; strain 09 3001, 1 μg/ml): R
sensitive/resistant (growth) ([1]; strain 09 3001, 2 μg/ml): R
sensitive/resistant (growth) ([1]; strain 09 3001, 4 μg/ml): R
sensitive/resistant (growth) ([1]; strain 09 3001, 8 μg/ml): R
sensitive/resistant (growth) ([1]; strain 09 3001, 16 μg/ml): R
sensitive/resistant (growth) ([1]; strain 09 3001, 32 μg/ml): R
sensitive/resistant (growth) ([1]; strain 09 3001, 64 μg/ml): R
MIC ([1]; strain 21 2001): >64 µg/mL
sensitive/resistant (growth) ([1]; strain 21 2001, 0.5 μg/ml): R
sensitive/resistant (growth) ([1]; strain 21 2001, 1 μg/ml): R
sensitive/resistant (growth) ([1]; strain 21 2001, 2 μg/ml): R
sensitive/resistant (growth) ([1]; strain 21 2001, 4 μg/ml): R
sensitive/resistant (growth) ([1]; strain 21 2001, 8 μg/ml): R
sensitive/resistant (growth) ([1]; strain 21 2001, 16 μg/ml): R
sensitive/resistant (growth) ([1]; strain 21 2001, 32 μg/ml): R
sensitive/resistant (growth) ([1]; strain 21 2001, 64 μg/ml): R
MIC [2]: > 160 µg/mL
PBMCs killed [6]: 60%
cytotoxic effect on PBMCs (LDH release) [6]: cytotoxic against PBMCs

Source: US20210214303A1, “SCORPION VENOM BENZOQUINONE DERIVATIVES AND USES THEREOF” (priority 2018, published 2021)
